Data as given in patent US20070254847A1, “Pharmaceutical Composition Containing Steroidal Saponins, the Preparation Method and Use Thereof” (priority 2004, published 2007).
Marks after values point to notes of the source that are not given here.

Tested on: acute myocardial infarction in rats
Assay: Effect on acute myocardial infarction in rats (ligation of left anterior descending coronary artery)
Format: in vivo, Wistar rats
Method: Test 1 Effect of Pseudoprotogracillin (□) on Acute Myocardial Infarction in Rats:
Pseudoprotogracillin (□) obtained in example 4 was applied in relevant pharmacological tests as follows:
Wistar rats, each weighing 180˜220 g, were randomized into 3 groups, namely control group, pseudoprotogracillin group of high dose and pseudoprotogracillin group of low dose, each of which had 12 rats. The rats in the control group were administered by gastric infusion of distilled water. The other rats in test groups were administered by gastric infusion of the relevant medicinal liquid (prepared with distilled water), according to the high dose (3 mg/kg) or low dose (1.5 mg/kg) listed in following table for each group, respectively. Infusion was performed once a day and continued for one week. 1 hour after last administration, urethane of 1 g/kg was given to the rats for abdominal anesthesia. The animal was fixed on its back and its skin was cut open along the midline of its sternum, along the left edge of which an incision was made for the heart to be squzeezed out quickly. Ligation was immediately made at the root of the left anterior descending branch of its coronary artery before putting the heart back into its thorax, which was then closed by suture and spontaneous breathing was restored. The test was ended 3 hours after ligation and the heart was sliced transversely below the line of ligation. 5 slices were blue-stained with nitrotetrazolium and an multiple color pathological analyzer (MPIAS-500) was applied to measure the areas of normal myocardium and infarct myocardium at a fixed imaging distance and to observe the degree of myocardial infarction.

[1] = High dose 3 mg/kg, gastric infusion once a day for one week, 3 hours after ligation, X ± s
[2] = Low dose 1.5 mg/kg, gastric infusion once a day for one week, 3 hours after ligation, X ± s

With “26-0-β-D-glucopyranosyl-3β, 26 glyco-25 (R)-Δ^5,20(22)-diene-furo-3-O-[α-L-Rhamnop yranosyl(1→2)]-[β-D-glucopyranosyl(1→3)]-β-D-glucopyranoside [pseudoprotogracillin (II)]” as the substance, how does the “Percentage of infarct area to the heart” value [1] read?
Its value is 20.74 ± 1.9 %.

And the “Percentage of infarct area to ventricle” value [1]?
The value was 24.5 ± 2.6 %.

And the Weight of infraction [1]?
The Weight of infraction was 0.227 ± 0.032 g.

And the Area of infraction [2]?
The Area of infraction was 91.3 ± 11.49* mm^2.

What about the “Percentage of infarct area to the heart” value [2] of the same substance?
The value was 25.2 ± 2.3 %.

And the “Percentage of infarct area to ventricle” value [2]?
The value was 28.1 ± 1.9 %.

What about the Weight of infraction [2] of the same substance?
The Weight of infraction was 0.241 ± 0.045 g.

And the “Action on myocardium (in words)” value (high and low dose vs control group)?
Its value is “obvious action to protect myocardium”.
